Measured values: patent publication US20100137387A1, “BETA-KETO-AMIDE DERIVATIVES USEFUL AS ION CHANNEL MODULATORS” (NeuroSearch A/S, priority 2007, published 2010)

Key:
chloride channel = test: In vitro human erythrocyte chloride conductance; type: cell-based; conditions: suspensions of human erythrocytes; from Cl- netfluxes and membrane potentials; read-out: KD-value (chloride channel blocking activity, membrane Cl-conductance)
From the text: In this example the chloride channel blocking activity of an acetamide derivative representative of the invention, i.e. Compound 3 (3-(3,5-Bis-trifluoromethyl-phenyl)-3-oxo-N-[3-(1H-tetrazol-5-yl)-4′-trifluoromethoxy-biphenyl-4-yl]-propionamide), has been determined.
All dose-response experiments were therefore performed by concomitant measurements of conductive netfluxes of Cl^− (Jcl) and membrane potentials (Vm) in suspensions of erythrocytes as described by Bennekou et al. (Bennekou P and Christophersen P: Flux ratio of Valinomycin-Mediated K^+ Fluxes across the Human Red Cell Membrane in the presence of the Protronophore CCCP; J. Membrane Biol. 1986 93 221-227).
The membrane Cl-conductances (GCl) were calculated according to Hodgkin et al. (Hodgkin A L and Huxley A F: The components of membrane conductance in the giant axon of Loligo; J. Physiol. Lond. 1952 116 449-472) using the following equation: […]
where F is the Faraday constant and ECl is the Nernst potential for the Cl-ion.

BK channels = molecular target: T1, BK channels (Homo sapiens, UniProt Q12791); test: BK channel activation, two-electrode voltage clamp in Xenopus laevis oocytes; type: cell-based; conditions: BK channels heterologously expressed in Xenopus laevis oocytes, 0.01-31.6 μM compound
T1 construct: expressed in transfected cells; host or cells: Xenopus laevis oocytes
T1 sequence (Q12791 whole entry): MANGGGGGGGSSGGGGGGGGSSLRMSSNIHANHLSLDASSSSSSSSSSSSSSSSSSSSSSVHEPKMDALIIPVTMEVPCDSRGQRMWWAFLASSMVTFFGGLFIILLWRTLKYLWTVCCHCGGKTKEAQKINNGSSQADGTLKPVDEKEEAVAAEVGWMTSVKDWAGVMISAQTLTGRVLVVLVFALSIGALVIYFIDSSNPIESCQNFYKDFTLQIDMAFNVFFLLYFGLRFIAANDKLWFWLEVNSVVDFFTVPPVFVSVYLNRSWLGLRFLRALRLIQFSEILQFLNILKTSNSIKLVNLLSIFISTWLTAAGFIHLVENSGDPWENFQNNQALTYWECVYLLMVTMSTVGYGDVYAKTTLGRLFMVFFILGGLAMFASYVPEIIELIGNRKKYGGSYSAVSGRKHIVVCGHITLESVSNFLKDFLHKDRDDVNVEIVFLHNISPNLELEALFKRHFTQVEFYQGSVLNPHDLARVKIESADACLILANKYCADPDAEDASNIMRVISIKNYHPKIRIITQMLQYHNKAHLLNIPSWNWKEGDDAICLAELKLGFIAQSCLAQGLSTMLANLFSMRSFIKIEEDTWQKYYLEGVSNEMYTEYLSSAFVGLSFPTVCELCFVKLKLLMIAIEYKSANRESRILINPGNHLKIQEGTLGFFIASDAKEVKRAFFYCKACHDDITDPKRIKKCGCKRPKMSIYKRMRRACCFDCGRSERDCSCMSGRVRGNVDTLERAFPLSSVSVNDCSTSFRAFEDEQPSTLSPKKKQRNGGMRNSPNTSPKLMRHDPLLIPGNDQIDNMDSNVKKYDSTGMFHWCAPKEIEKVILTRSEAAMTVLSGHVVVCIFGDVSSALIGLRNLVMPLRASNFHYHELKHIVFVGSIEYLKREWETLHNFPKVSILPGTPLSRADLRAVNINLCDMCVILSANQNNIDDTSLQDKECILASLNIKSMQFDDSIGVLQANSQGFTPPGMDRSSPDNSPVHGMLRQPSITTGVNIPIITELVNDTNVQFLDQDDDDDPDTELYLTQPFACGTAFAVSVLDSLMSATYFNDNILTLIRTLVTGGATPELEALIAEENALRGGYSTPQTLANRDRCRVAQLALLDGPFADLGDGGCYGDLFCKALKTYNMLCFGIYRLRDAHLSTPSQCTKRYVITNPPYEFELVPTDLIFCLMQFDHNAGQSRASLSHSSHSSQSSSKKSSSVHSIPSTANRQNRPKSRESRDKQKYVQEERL
Method: In this example the BK channel opening activity of Compound 4 (i.e. N-[5-Chloro-2-(1H-tetrazol-5-yl)-phenyl]-3-(4-chloro-3-trifluoromethyl-phenyl)-3-oxo-propionamide) is determined using BK channels heterologously expressed in Xenopus laevis oocytes.
The electrical current through the BK channel is measured using conventional two-electrode voltage clamp. BK currents are activated by repeating ramp protocols. In brief, the membrane potential is continuously changed from −120 mV to +120 mV within 2 s. The threshold for BK activation is approximately +30 mV under control conditions. Compounds are applied for 100 s during which the ramp protocol is repeated 10 times with 10 s intervals. In between the ramp protocols the membrane potential is clamped at −80 mV. […]
In order to evaluate the ability of the compounds to shift the BK activation curve towards lower membrane potentials, the BK current was transformed into conductance by using Ohm's law g=I/(Ememb−Erev), where g is the conductance, I is the current, Ememb is the membrane potential and Erev is the reversal potential. […] The control conductance level at a membrane potential of +100 mV was calculated, and the compound effect was evaluated as the potential difference, ΔV, to the membrane potential at which the same conductance level was obtained in the presence of compound. […]

Kd (chloride channel) | ΔVmax (maximal left shift of the BK activation curve) (BK channels; fitted to sigmoidal logistic equation) | EC50 (BK channels; ΔV vs. control conductance at +100 mV, read-out: EC50 for the left-shift of the BKCa-activation curve) | SMILES
210 nM |  |  | O=C(CC(=O)c1cc(C(F)(F)F)cc(C(F)(F)F)c1)Nc1ccc(-c2ccc(OC(F)(F)F)cc2)cc1-c1nnn[nH]1 [Compound 3, 3-(3,5-Bis-trifluoromethyl-phenyl)-3-oxo-N-[3-(1H-tetrazol-5-yl)-4′-trifluoromethoxy-biphenyl-4-yl]-propionamide]
 | −123 mV | 1800 nM | O=C(CC(=O)c1ccc(Cl)c(C(F)(F)F)c1)Nc1cc(Cl)ccc1-c1nnn[nH]1 [Compound 4, N-[5-Chloro-2-(1H-tetrazol-5-yl)-phenyl]-3-(4-chloro-3-trifluoromethyl-phenyl)-3-oxo-propionamide]
